One data set deals with Staphylococcus aureus. The experiment in a line: Protection against methicillin-resistant Staphylococcus aureus infection in pneumonia patient. Type of data set: functional.
The test system of data set [1] is Canis familiaris. Kind of data set: Toxicity in dog at 25 mg/kg for 30 days. Type of data set: organism-based, Canis lupus familiaris. Also noted: dose 25 mg/kg. As to conditions: in vivo, 720 h.
Data set [2] can be described thus: Oral bioavailability in dog at 25 mg/kg. The format is ADME, organism-based, Canis lupus familiaris. The following applies: in vivo.
The test system of data set [3] is Rattus norvegicus. Kind of data set: Toxicity in rat at 25 mg/kg for 30 days. Type of data set: organism-based. Also on record: dose 25 mg/kg. As to conditions: in vivo, 720 h.
The test system of data set [4] is Canis familiaris. Kind of data set: Toxicity in dog at 20 mg/kg for 30 days. The format is organism-based, Canis lupus familiaris. Also on record: dose 20 mg/kg. The following applies: in vivo, 720 h.
The test system of another data set is Enterococcus. The experiment in a line: Protection against vancomycin-resistant Enterococcus infection in pneumonia patient. The format is functional.
A short description of data set [5]: Drug level in human lung epithelial lining fluid at 600 mg, po bid after 4 hrs. Type of data set: ADME, organism-based. As to conditions: read-out: Drug uptake.
For data set [6], the system named is Canis familiaris. The experiment in a line: Toxicity in dog at 40 mg/kg, po for 30 days. The format is organism-based, Canis lupus familiaris. Also on record: dose 40 mg/kg, route oral. As to conditions: in vivo, 720 h.
Data set [7] can be described thus: Elimination half life in human. The following applies: in vivo. Type of data set: ADME, organism-based.
Data set [8] has as its target T1, Amine oxidase [flavin-containing] A (Homo sapiens, UniProt P21397).
T1 sequence (P21397 whole entry): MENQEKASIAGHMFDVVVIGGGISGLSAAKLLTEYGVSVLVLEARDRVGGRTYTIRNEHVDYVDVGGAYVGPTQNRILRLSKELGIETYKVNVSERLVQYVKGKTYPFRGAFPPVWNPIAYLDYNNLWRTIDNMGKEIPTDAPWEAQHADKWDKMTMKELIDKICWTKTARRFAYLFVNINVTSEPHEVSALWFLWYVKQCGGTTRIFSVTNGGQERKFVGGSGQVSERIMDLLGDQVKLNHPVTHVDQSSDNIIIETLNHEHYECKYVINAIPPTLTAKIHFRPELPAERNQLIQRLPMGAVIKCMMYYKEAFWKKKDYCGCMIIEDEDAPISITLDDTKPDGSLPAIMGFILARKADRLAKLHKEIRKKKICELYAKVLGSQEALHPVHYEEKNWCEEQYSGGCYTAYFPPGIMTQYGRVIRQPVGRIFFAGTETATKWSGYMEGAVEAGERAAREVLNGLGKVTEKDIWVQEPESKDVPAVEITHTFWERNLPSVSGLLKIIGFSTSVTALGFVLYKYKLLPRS
The experiment in a line: Inhibition of monoamine oxidase A.

The next data set relates to Plasma. The experiment in a line: Plasma concentration in human at 600 mg, po bid. The following applies: in vivo. Type of data set: ADME, organism-based.
Data set [9] is described as follows: Renal clearance in human. The format is ADME, organism-based, Kidney. As to conditions: in vivo, read-out: CL_renal.
The nature of data set [10]: Total clearance in human. Type of data set: ADME, organism-based. The following applies: in vivo.
For data set [11], the system named is Rattus norvegicus. Kind of data set: Toxicity in rat at 50 mg/kg, po for 30 days. Type of data set: organism-based. Also on record: dose 50 mg/kg, route oral. The following applies: in vivo, 720 h.
For data set [12], the system named is Rattus norvegicus. Kind of data set: Toxicity in rat at 20 mg/kg for 30 days. The following applies: in vivo, 720 h. The format is organism-based. Also noted: dose 20 mg/kg.
For another data set, the species on record is Homo sapiens. Kind of data set: Nonrenal clearance in human. The format is ADME, organism-based. The following applies: in vivo.
The nature of data set [13]: Drug level in human urine. The format is ADME, tissue-based. The following applies: read-out: Drug uptake.
For data set [14], the system named is Mycobacterium tuberculosis. The experiment in a line: Antimycobacterial activity against Mycobacterium tuberculosis H37Rv. Type of data set: functional.
A short description of data set [15]: Aqueous solubility of the compound. The format is physicochemical.

Values after ≈ are worked out from the molar mass of the structure shown.

One may read the bioavailability as the share of a dose that reaches the circulation, judged against a reference dose that is usually intravenous. What is called half-life is the time in which the quantity being followed falls by half. What is called Ki is the dissociation constant of the complex between target and ligand, obtained from inhibition or displacement. Low readings indicate a stronger hold on the target, high ones a looser hold on the target. The term clearance denotes the rate of elimination divided by the concentration. What is called MIC is the least concentration at which growth counts as inhibited. Higher therefore signals a need for much substance. For orientation: solubility means the dissolved amount per volume that the medium holds. Higher therefore signals much dissolved substance.

In turn, `CN[C@H](CC(C)C)C(=O)N[C@H]1C(=O)N[C@@H](CC(N)=O)C(=O)N[C@H]2C(=O)N[C@H]3C(=O)N[C@H](C(=O)N[C@H](C(=O)O)c4cc(O)cc(O)c4-c4cc3ccc4O)[C@H](O)c3ccc(c(Cl)c3)Oc3cc2cc(c3O[C@@H]2O[C@H](CO)[C@@H](O)[C@H](O)[C@H]2O[C@H]2C[C@](C)(N)[C@H](O)[C@H](C)O2)Oc2ccc(cc2Cl)[C@H]1O` [VANCOMYCIN] yielded an Activity in the data set with Staphylococcus aureus of 74%.

As to `CC(=O)NC[C@H]1CN(c2ccc(N3CCN(C(=O)CO)CC3)c(F)c2)C(=O)O1` [EPEREZOLID], the Activity result with Canis familiaris [1] and in the data set on Rattus norvegicus [3] was “Non-toxic” each time. The same molecule displayed a bioavailability in [2] of 100%.

As to `CC(=O)NC[C@H]1CN(c2ccc(N3CCOCC3)c(F)c2)C(=O)O1` [LINEZOLID], the Activity result in the data set with Canis familiaris [4], with Canis familiaris [6], in the data set with Rattus norvegicus [11] and in the data set with Rattus norvegicus [12] was “Non-toxic” each time. Besides, the Efficacy with Enterococcus came out at 88%; with Staphylococcus aureus, 77%. The concentration at 4 h in data set [5] is 64.3 µg/mL. This molecule also gave a half-life in [7] of 300 min. In data set [8], this molecule had an inhibition constant (Ki) of 55 µM. Further, in the data set on Plasma, the Cp amounted to 7.3 µg/mL. In addition, the CL renal in data set [9] was found to be 30 mL/min. Further, the clearance in [10] is 100 mL/min. For the same molecule, the CL in the data set filed under Homo sapiens came to 70 mL/min. Further, in [13], the dose excreted came to 20%.

As to `NNC(=O)c1ccncc1` [ISONIAZID], it took 0.2 µg/mL (≈ 1.46 µM) to inhibit growth in data set [14] (MIC).

In data set [14], `CC(=O)NC[C@H]1CN(c2ccc(N3CCSCC3)c(F)c2)C(=O)O1` [SUTEZOLID] came in with an MIC of at most 0.125 µg/mL. The concentration in solution in data set [15] (solubility) was 200 µg/mL (≈ 566 µM).

For the origin of these results see ChEMBL document CHEMBL1142432 (J Med Chem, 2008).
